{"source": "patent US20200277246A1", "about": "“TREATMENT METHOD, COMPOUNDS, AND METHOD OF INCREASING TRPV2 ACTIVITY” (THE FEINSTEIN INSTITUTE FOR MEDICAL RESEARCH, priority 2015, published 2020)", "key": {"cannabinoid receptors": {"tested_on": "cannabinoid receptors", "details": "cited from earlier work"}, "phosphorylated Erk1/2": {"tested_on": "phosphorylated Erk1/2", "assay": "FLS levels of phosphorylated Erk1/2", "format": "cell-based"}, "Trpv2 [1]": {"biological_target": "T1, Trpv2 (Rattus norvegicus, UniProt Q9WUD2)", "T1 sequence (Q9WUD2 1-761)": "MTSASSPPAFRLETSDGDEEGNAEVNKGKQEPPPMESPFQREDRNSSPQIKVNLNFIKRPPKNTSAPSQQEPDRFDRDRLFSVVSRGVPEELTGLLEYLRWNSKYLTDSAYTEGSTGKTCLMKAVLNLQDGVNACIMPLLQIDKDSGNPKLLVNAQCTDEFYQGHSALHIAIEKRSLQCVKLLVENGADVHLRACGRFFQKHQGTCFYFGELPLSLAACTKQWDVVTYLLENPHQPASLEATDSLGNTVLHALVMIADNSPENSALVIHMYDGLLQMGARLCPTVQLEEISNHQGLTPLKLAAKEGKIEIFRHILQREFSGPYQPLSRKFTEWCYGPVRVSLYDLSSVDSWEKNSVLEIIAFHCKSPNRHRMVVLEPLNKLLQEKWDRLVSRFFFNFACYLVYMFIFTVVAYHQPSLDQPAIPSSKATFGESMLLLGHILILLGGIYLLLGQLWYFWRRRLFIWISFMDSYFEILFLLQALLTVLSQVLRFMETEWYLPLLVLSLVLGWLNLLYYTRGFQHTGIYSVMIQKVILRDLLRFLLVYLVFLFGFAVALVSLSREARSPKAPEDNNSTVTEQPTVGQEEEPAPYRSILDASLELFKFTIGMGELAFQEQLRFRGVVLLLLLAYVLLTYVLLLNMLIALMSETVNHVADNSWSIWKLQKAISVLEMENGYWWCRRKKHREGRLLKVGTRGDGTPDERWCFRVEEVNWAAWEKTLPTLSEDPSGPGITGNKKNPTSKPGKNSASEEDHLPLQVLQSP", "assay": "Single cell patch clamp of DA FLS", "format": "cell-based", "design": "endogenous in cells; host or cells: FLS from DA rats with pristane-induced arthritis", "details": "perfusion with 30 μM", "protocol": "FLS obtained from DA rats with PIA were plated in culture medium onto glass coverslips and allowed to adhere at 37° C. Recordings were performed in the whole-cell configuration of the patch-clamp technique at room temperature using an EPC10-USB amplifier (HEKA instruments, Bellmore, N.Y.). […] The bath solution contained 132 mM NaCl, 5.4 mM KCl, 1.8 mM CaCl2, 0.8 mM MgCl2, 10 mM HEPES, and 10 mM glucose, at pH 7.4. O1821-activated currents were elicited with a 600 ms ramp from −100 to +100 mV from a holding potential of −107 mV. Addition of O1821 was accomplished by complete bath exchange."}, "FLS": {"tested_on": "FLS", "assay": "MTT assay", "format": "cell-based", "details": "24 hours, concentrations of the invasion studies", "protocol": "4×10^4 FLS per well were plated in triplicate in 96-well plates in 100 μl of complete media. Cells were allowed to adhere for 24 hours. Media was then changed and O1821, LER13, or vehicle was added at the same concentrations used for the invasion studies. After 24 hours (same duration of the invasion experiments) viable cells were determined by the colorimetric MTT kit (Millipore) according to the manufacturer's instructions."}, "p65 NFκB": {"tested_on": "p65 NFκB", "assay": "p65 NFκB nuclear location by immunofluorescence in FLS", "format": "cell-based", "details": "5, 10, 30, and 60 minutes, and 24 hours"}, "Trpv2 [2]": {"tested_on": "Trpv2", "details": "cited from earlier work"}, "Trpv1": {"biological_target": "Trpv1 (Homo sapiens, UniProt Q8NER1)", "sequence (Q8NER1 whole entry, species assumed)": "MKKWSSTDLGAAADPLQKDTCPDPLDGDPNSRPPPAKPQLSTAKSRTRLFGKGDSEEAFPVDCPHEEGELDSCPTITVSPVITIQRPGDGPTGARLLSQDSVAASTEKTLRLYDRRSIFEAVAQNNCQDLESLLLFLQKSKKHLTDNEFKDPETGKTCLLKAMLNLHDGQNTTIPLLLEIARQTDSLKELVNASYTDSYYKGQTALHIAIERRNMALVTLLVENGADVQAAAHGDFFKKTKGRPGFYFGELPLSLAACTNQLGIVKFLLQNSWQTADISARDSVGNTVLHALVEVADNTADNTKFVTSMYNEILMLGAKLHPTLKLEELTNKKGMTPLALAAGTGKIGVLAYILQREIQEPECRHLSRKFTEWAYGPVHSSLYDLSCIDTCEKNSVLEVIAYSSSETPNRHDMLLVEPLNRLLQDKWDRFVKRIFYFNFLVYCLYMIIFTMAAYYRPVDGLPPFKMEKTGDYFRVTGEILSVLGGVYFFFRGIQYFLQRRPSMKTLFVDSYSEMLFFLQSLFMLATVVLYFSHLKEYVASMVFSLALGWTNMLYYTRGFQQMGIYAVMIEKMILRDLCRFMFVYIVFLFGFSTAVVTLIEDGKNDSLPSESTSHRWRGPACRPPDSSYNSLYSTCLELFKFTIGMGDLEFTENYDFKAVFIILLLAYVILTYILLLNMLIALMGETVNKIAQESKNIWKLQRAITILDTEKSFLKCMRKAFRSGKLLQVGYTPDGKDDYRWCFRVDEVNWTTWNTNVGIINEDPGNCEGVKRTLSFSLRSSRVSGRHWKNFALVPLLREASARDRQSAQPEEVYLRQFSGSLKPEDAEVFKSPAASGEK", "details": "cited from earlier work"}}}
{"smiles": "C=C(C)[C@@H]1CCC(C)=C[C@H]1c1c(O)cc(C)cc1O", "note": "[Compound O1821]", "values": [{"measurement": "Stimulation of cannabinoid receptors", "setting": "cannabinoid receptors", "result": "does not stimulate"}, {"measurement": "Levels of phosphorylated Erk1/2", "setting": "phosphorylated Erk1/2", "result": "did not affect"}, {"measurement": "Trpv2 channel current", "setting": "Trpv2 [1]", "result": "induced channel opening"}, {"measurement": "Toxicity to FLS (cell mortality)", "setting": "FLS", "result": "not toxic"}, {"measurement": "p65 NFκB activation (nuclear location)", "setting": "p65 NFκB", "result": "did not change"}, {"measurement": "Stimulation of Trpv2", "setting": "Trpv2 [2]", "result": "stimulates"}, {"measurement": "Stimulation of Trpv1", "setting": "Trpv1", "result": "does not stimulate"}]}
